The values below come from US6620803B2, “Cosmetic or dermatological use of 7-hydroxylated steroids” (Vitasterol SARL, priority 1997, dated 2003).

Series [1] concerns human keratinocytes. The series is described as follows: Anti-free radical effect on UVA-irradiated suspension of human keratinocytes (lipid peroxides by chemiluminescence). Type of series: cell-based. The conditions noted are these: 10^−6 M, calculated on nonirradiated controls and reference of protection. The procedure:
Keratinocytes originating from a healthy donor are cultured to the subconfluent stage in medium (KGM) which is specific for the proliferation of the keratinocytes. The suspensions obtained are divided in triplicate into 4 series of which 3 are irradiated for 30 min with a lamp emitting UVA in order to activate the production of free radicals. Among the three irradiated series, one contains the vitamins C+E (0.7%) and serves as a reference of protection, one contains 7α-hydroxy-DHEA at 10^−6M and the last serves as a control.
The free radicals produced generate lipid peroxides which are determined by chemiluminescence (Belghmi et al. J. Biolum. Chemilum. 2: 113-119, 1982). The efficacy of 7α-hydroxy-DHEA is calculated on the basis of nonirradiated controls and of the reference of protection.

The subject of series [2] is thymocytes of C57BL/6 mice (mouse T cells). The series is described as follows: Cell apoptosis induced by glucocorticoids in cultured mouse thymocytes (flow cytometry, propidium iodide). The format is cell-based, mouse (C57BL/6). The procedure:
The thymus of C57BL/6 mice aged 4 weeks is removed. Culturing of the thymocytes is carried out for 6 hours in RPMI 1640 medium and in the presence or in the absence of the steroid tested. Apoptosis (fragmentation of the DNA) is measured by flow cytometry after labeling with propidium iodide. The apoptotic phenomenon is checked by electrophoresis of the DNA, which is visualized by ethidium bromide according to the conventional technique (observation of ranges of 200 base pairs).

The subject of series [3] is human keratinocytes. Description: Viability of human keratinocytes in culture (MTT test). Type of series: cell-based. The conditions noted are these: concentrations tested 10^−4 M to 10^−8 M. On the procedure:
(§1) Human keratinocyzes are obtained from parts removed by surgery and are cultured in a monolayer to preconfluence. 7α-Hydroxy-DHEA is administered to these cultures at various concentrations in ethanolic solution (10%), each concentration being tested eight times. Controls are carried out with ethanol alone (10%). After 24 hours, the viability of the keratinocytes is measured by testing with MTT (3-(4,5-dimethylthiazol-2-yl)-2,5-diphenyltetrazolium bromide) where the mitochondrial dehydrogenase succinate transforms the MTT into blue crystals of formazan which are soluble in DMSO (Mosmann, J. Immunol. Methods 65: 55-63, 1983). The cell viability is calculated according to the formula:
(§2) Any value greater than 100 indicates a product favoring cell viability.

Test in series [4]: as above
The settings on record: human, primary human keratinocytes in monolayer culture. The format is cell-based. The procedure:
as §1, §2

The mark [5] stands for this setting: steroid 10^−5 M together with Dexamethasone 10^−5 M, 6 hours, dexamethasone alone 73.5.
The mark [6] stands for this setting: steroid 10^−6 M together with Dexamethasone 10^−6 M, 6 hours, dexamethasone alone 72.7.

Consider `C[C@]12CC[C@H](O)CC1=C[C@@H](O)[C@@H]1[C@@H]2CC[C@]2(C)C(=O)CC[C@@H]12` [7α-hydroxy-DHEA, 3β,7α-dihydroxy-5-androsten-17-one], for which, in the series with human keratinocytes [1], the Efficacy is on record as 90%. Besides, the results for the “Apoptotic cells (%)” value in series [2] (setting [5]) and in series [2] (setting [6]) were 48.6% and 58.8%, respectively. Moreover, the Cytotoxicity on keratinocytes entry with human keratinocytes [3] is “no cytotoxicity was observed”. Besides, the viability at 24 h in series [4] (5.10^−5 M, 24 hours, control 100) is 111 ± 7%; in series [4] (5.10^−6 M, 24 hours, control 100) it was 147 ± 9%; in series [4] (5.10^−7 M, 24 hours, control 100), 139 ± 3%; in series [4] (10^−4 M, 24 hours, control 100), 124 ± 10%; in series [4] (10^−5 M, 24 hours, control 100) it was 119 ± 7%; in series [4] (10^−6 M, 24 hours, control 100), 154 ± 6%. Also, the viability at 24 h came out at 147 ± 5% in series [4] (10^−7 M, 24 hours, control 100) and 127 ± 3% in series [4] (10^−8 M, 24 hours, control 100).

Regarding `C[C@]12CC[C@H](O)C[C@@H]1C[C@@H](O)[C@@H]1[C@@H]2CC[C@]2(C)C(=O)CC[C@@H]12` [7α-hydroxy-ISOA, 3β,7α-dihydroxy-5α-androstan-17-one], the “Apoptotic cells (%)” value in series [2] (setting [5]) is 46.3%; in series [2] (setting [6]), 72.0%.

For the compound `C[C@]12CC[C@H](O)CC1=CC[C@@H]1[C@@H]2CC[C@]2(C)C(=O)CC[C@@H]12` [DHEA, 3β-hydroxy-5-androstene-17-one, reference compound], the “Apoptotic cells (%)” value in series [2] (setting [5]) came out at 51.4%; in series [2] (setting [6]) it was 39.0%. Further, in series [4] (other comparative tests, concentration not given), the viability at 24 h came out at 100 ± 5%.

Take `C[C@@H]1C[C@H]2[C@@H]3CCC4=CC(=O)C=C[C@]4(C)[C@@]3(F)[C@@H](O)C[C@]2(C)[C@@]1(O)C(=O)CO` [Dexamethasone, reference compound]: the “Apoptotic cells (%)” value was found to be 73.5% in series [2] (Dexamethasone 10^−5 M alone, thymocytes cultured 6 hours, ethanol alone 41.5) and 72.7% in series [2] (Dexamethasone 10^−6 M alone, thymocytes cultured 6 hours, ethanol alone 41.5).
